Data as given in US20080113969A1, “COMBINATION THERAPY FOR THE TREATMENT OF PAIN” (priority 2006, published 2008).
“Also recorded” adds a separate entry of the source.

Columns and labels:
[1] = system: postoperative pain model in adult male rats; test: Postincisional hypersensitivity model (paw incision, withdrawal threshold to von Frey filaments); format: in vivo, rat; conditions: intrathecal (i.t.), 24 h after paw incision
Description: Animal preparation: Following Animal Care and Use Committee approval, an intrathecal (i.t.) catheter with tip in the lumbar space is inserted as previously described in adult male rats weighing 250 g (Yaksh and Rudy, Physiol Behav. 1976, 7, 1032-1036). One week following the insertion of the i.t. catheter, paw incision surgery is performed as previously described (Brennan et al., Pain 1996, 64, 493-501). Briefly, animals are anesthetized with halothane, and a 1-cm long incision is made in the plantar aspect of the left hind paw starting 0.5 cm from the edge of the heel toward the toe after sterile preparation with 70% ethanol. The plantaris muscle is elevated and incised longitudinally. The wound is closed with 2 mattress sutures of 5.0 silk. Subsequently, withdrawal threshold to von Frey filaments is determined one day after surgery (Chaplan et al., J. Neurosci. Methods, 1994, 53, 55-63). For all testing but pilot dose ranging studies, investigators are blinded to study drug administration. A cut off value of 22 g is used. […]
Single drug injection: For single drug administration, a volume containing 5 μL drug is used, followed by 10 μL of saline. […] Dose response curves are first constructed, and ED40 values for single drugs are then determined at the time of peak effect.
Drug interaction: For the combination of T-62 with morphine and NBQX, two injections are performed since the time of peak effect for morphine and NBQX is 30 min earlier than that of T-62 (T-62 is injected 30 min before drug injections). Paw withdrawal thresholds are determined before surgery, before drug injection, and 30, 60, 90, 120, 150, 180, and 210 min after the second drug injection. […] The dose response curves are then constructed for the combined drugs, and the ED40 values of the combined drugs are calculated at the time point of peak effect. […]
Data analysis: Data are presented as mean ±S.E. Withdrawal threshold data are analyzed by two-way analysis of variance followed by Fisher's LSD test. […] Isobolograms are statistically analyzed by student T test.

[2] = system: neuropathic pain model in male Sprague-Dawley rats; test: Neuropathic pain model (Chung model, spinal nerve ligation, von Frey withdrawal threshold); format: in vivo, rat; conditions: Chung model of chronic neuropathic pain, FIG. 8
Text: Spinal Nerve Ligation: After Animal Care and Use Committee approval, male Sprague-Dawley rats (Harlan, Indianapolis, Ind., USA) weighing 180-200 g undergo anesthesia as previously described by Kim and Chung (Pain 1992, 50, 355-363). Briefly, under general anesthesia with inhalational halothane, the left L5 and L6 spinal nerves are identified through a small laminotomy and tightly ligated. Approximately one week later, an intrathecal catheter is placed under general anesthesia by insertion under direct vision of a polyethylene catheter through a small slit in the dura at the cisterna magnum, and advanced 8.5 cm such that the catheter tip resides in the lower lumbar intrathecal space. Animals are studied approximately one week later. Ligation of the lumbar spinal nerves results in a primarily unilateral increase in the sensitivity to light touch on the operated side. Sensitivity is assessed via application of calibrated von Frey filaments. The withdrawal threshold is determined using an up down method as previously described by Chaplan et al. (J. Neurosci. Methods 1994, 53, 55-63).
Experimental Design: Animals receive, at least 4 weeks after spinal nerve ligation surgery, and at least 1 week after intrathecal catheter insertion, single injections of vehicle (β-cyclodextrin) or the drug substance, using a randomized and blinded protocol. Withdrawal thresholds are determined at intervals for up to 20 hr after injection.

[3] = system: inflammatory and neuropathic pain; conditions: previously demonstrated (Li et al. 2003, Li et al. 2002, Pan et al. 2001); cited from earlier work

SMILES | anti-hypersensitivity effect (mechanical hypersensitivity) [1] | anti-allodynic effect [2] | effect on inflammatory and neuropathic pain [3] | relative potency among the three enhancers [2]
NS(=O)(=O)c1cccc2c1c([N+](=O)[O-])cc1nc(O)c(O)nc12 [NBQX, 2,3-dihydroxy-6-nitro-7-sulfamoylbenzo(f)quinoxaline, reference compound] | reduces the mechanical hypersensitivity in a time and dose dependent manner | – | – | –
Nc1sc2c(c1C(=O)c1ccc(Cl)cc1)CCCC2 [T-62, (2-amino-4,5,6,7-tetrahydrobenzo[b]thiophen-3-yl)(4-chlorophenyl)methanone] | reduced mechanical hypersensitivity in a time dependent manner; also recorded: modest effect | dose-dependent anti-allodynic effects | reduce inflammatory and neuropathic pain | –
CN1CC[C@]23c4c5ccc(O)c4O[C@H]2[C@@H](O)C=C[C@H]3[C@H]1C5 [Morphine, morphine, reference compound] | reduces mechanical hypersensitivity in a time and dose dependent manner | – | – | –
Nc1sc2c(c1C(=O)c1ccccc1)CCS2 [formula (Ib)] | – | dose-dependent anti-allodynic effects | – | –
Nc1sc2c(c1C(=O)c1cccc3ccccc13)CCC2 [formula (Ic)] | – | dose-dependent anti-allodynic effects | – | most potent enhancer of the three agents
